Test results taken from patent US20040029965A1, “Formulations for reducing or eliminating toxicity of enviromental hormones containing ursodeoxycholic acid” (priority 2000, published 2004).

Experiments:
Type in all cases: in vivo
[1] = test system: C57B1/6J mice; experiment: Effect of UDCA on death (death rate, death time) of mice by a single subcutaneous injection of TCDD
Experimental: (§1) Male C57B1/6J mice of 5 weeks old having the average weight of 18-22 g which had been bred in CRJ (Charles River in Japan) were purchased and used in this example as experimental animals. Those mice were acclimated under the constant breeding condition, i.e. the temperature of 24±1° C., the humidity of 60±10% and the light and darkness cycle of 12 hours, for one week and thereafter, utilized in the experiment.
(§2) The Experimental animals were supplied with Purina powdered feed (purchased from Hae Eun Trade) and supplied with water ad libitum. All the animals were weighed twice a week during experimentation.
(§3) 2,3,7,8-tetrachlorodibenzo-p-dioxin (TCDD) dissolved in toluene (purity of 95% or more as a result of gas chromatography analysis), manufactured by Chem. Services Inc. in USA, was volatilized with nitrogen to obtain powder. The obtained powder was dissolved in a mixed solvent containing acetone and corn oil with a volume ratio of 1:6. The resulting solution each containing 110, 27.5 and 6.9 μg/kg of TCDD was subcutaneously injected to mice at a volume of 5 ml per body weight. […] The mice were supplied with the feed from 10 days before (pre-administration) to 60 days after administration of TCDD (post-administration).
(§4) The results are expressed as Mean±Standard Deviation values. For statistical analysis of the body weight, feed and water uptake, biochemical findings, hematological findings and the weight of organ in an acute toxicity test, verification was performed by one way analysis of variance (ANOVA) in case of equal distribution. In case significance was recognized in ANOVA, the Student's t-test was performed in the levels of p<0.05 and p<0.01.

[2] = test system: C57B1/6J mice; experiment: Feed uptake of mice after a single subcutaneous injection of TCDD; parameters: unit not given here
Experimental: as §1, §2, §3, §4

[3] = test system: C57B1/6J mice; experiment: Hematological changes in mice by a single subcutaneous injection of TCDD; conditions: TCDD 6.9 μg/kg + UDCA 0.125 wt %
Experimental: as §1, §3
Upon completion of the experiment for 60 days, the experimental animals were fasted for 24 hours and anesthetized with ether. Then, they were abdominally incised and blood was gathered from abdominal vena cava. They were sacrificed by the release of blood. Liver, kidneys, testes and epididymides were extracted and all the extracted organs were weighed. Only the testes were separately kept and observed under optical and electron microscopes. For biochemical finding test, serum was separated from blood with a centrifuge and the separated serum was analyzed with an automated blood biochemical analyzer, Dimension (Dupont, USA). Blood was put to another blood gathering bottle and then, analyzed with an automated blood cell analyzer, Celldyn (Abbott, USA).
as §4
For hematological findings, white blood cell (WBC), neutrophil (NEU), lymphocyte (LYM), monocyte (MONO), eosinophil (EOS), basophil (BASO) and red blood cell (RBC) counts, and hemoglobin concentration (HGB), hematocrit (HCT), mean cell volume (MCV), mean corpuscular hemoglobin (MCH), mean corpuscular hemoglobin concentration (MCHC), red blood cell distribution width (RDW) and platelet count (PLT) were measured and the results are as follows.

[4] = TCDD 6.9 μg/kg + UDCA 0.125 wt %
[5] = TCDD 6.9 μg/kg + UDCA 0.25 wt %
[6] = TCDD 110.0 μg/kg + UDCA 0.125 wt %
[7] = TCDD 110.0 μg/kg + UDCA 0.25 wt %
[8] = TCDD 110.0 μg/kg + UDCA 0.5 wt %

C[C@H](CCC(=O)O)[C@H]1CC[C@H]2[C@@H]3[C@@H](O)C[C@@H]4C[C@H](O)CC[C@]4(C)[C@H]3CC[C@]12C [UDCA, 3α, 7β-dihydroxy-5β-cholanoic acid]
Death rate [1, 4]: 0%
No. of dead mice/No. of administered mice [1, 4]: 0/10
Death rate [1, 5]: 0%
No. of dead mice/No. of administered mice [1, 5]: 0/10
Death rate ([1]; TCDD 6.9 μg/kg + UDCA 0.5 wt %): 0%
No. of dead mice/No. of administered mice ([1]; TCDD 6.9 μg/kg + UDCA 0.5 wt %): 0/10
No. of dead mice/No. of administered mice ([1]; TCDD 27.5 μg/kg + UDCA 0.125 wt %): 0/10
No. of dead mice/No. of administered mice ([1]; TCDD 27.5 μg/kg + UDCA 0.25 wt %): 0/10
No. of dead mice/No. of administered mice ([1]; TCDD 27.5 μg/kg + UDCA 0.5 wt %): 0/10
Death time (Mean ± SD) [1, 6]: 33 ± 4 days
No. of dead mice/No. of administered mice [1, 6]: 10/10
Death rate [1, 7]: 90%
Death time (Mean ± SD) [1, 7]: 34 ± 5 days
No. of dead mice/No. of administered mice [1, 7]: 9/10
Death rate [1, 8]: 40%
Death time (Mean ± SD) [1, 8]: 51 ± 8 days
No. of dead mice/No. of administered mice [1, 8]: 4/10
feed uptake ([2]; TCDD 6.9 μg/kg + UDCA 0.125 wt %, 10 days): 4.64 ± 0.73
feed uptake ([2]; TCDD 6.9 μg/kg + UDCA 0.125 wt %, 20 days): 4.55 ± 0.44
feed uptake ([2]; TCDD 6.9 μg/kg + UDCA 0.125 wt %, 30 days): 3.83 ± 0.36
feed uptake ([2]; TCDD 6.9 μg/kg + UDCA 0.125 wt %, 40 days): 3.83 ± 0.36
feed uptake ([2]; TCDD 6.9 μg/kg + UDCA 0.125 wt %, 50 days): 3.19 ± 0.13
feed uptake ([2]; TCDD 6.9 μg/kg + UDCA 0.125 wt %, 60 days): 2.59 ± 0.23
feed uptake ([2]; TCDD 6.9 μg/kg + UDCA 0.25 wt %, 10 days): 4.39 ± 0.79
feed uptake ([2]; TCDD 6.9 μg/kg + UDCA 0.25 wt %, 20 days): 4.86 ± 0.90
feed uptake ([2]; TCDD 6.9 μg/kg + UDCA 0.25 wt %, 30 days): 3.78 ± 0.57
feed uptake ([2]; TCDD 6.9 μg/kg + UDCA 0.25 wt %, 40 days): 3.78 ± 0.57
feed uptake ([2]; TCDD 6.9 μg/kg + UDCA 0.25 wt %, 50 days): 3.18 ± 0.56
feed uptake ([2]; TCDD 6.9 μg/kg + UDCA 0.25 wt %, 60 days): 2.90 ± 0.30
feed uptake ([2]; TCDD 6.9 μg/kg + UDCA 0.5 wt %, 10 days): 4.48 ± 0.67
feed uptake ([2]; TCDD 6.9 μg/kg + UDCA 0.5 wt %, 20 days): 4.00 ± 1.11
feed uptake ([2]; TCDD 6.9 μg/kg + UDCA 0.5 wt %, 30 days): 4.66 ± 0.67
feed uptake ([2]; TCDD 6.9 μg/kg + UDCA 0.5 wt %, 40 days): 4.66 ± 0.67
feed uptake ([2]; TCDD 6.9 μg/kg + UDCA 0.5 wt %, 50 days): 3.12 ± 0.40
feed uptake ([2]; TCDD 6.9 μg/kg + UDCA 0.5 wt %, 60 days): 3.35 ± 1.56
feed uptake ([2]; TCDD 27.5 μg/kg + UDCA 0.125 wt %, 10 days): 4.15 ± 0.64
feed uptake ([2]; TCDD 27.5 μg/kg + UDCA 0.125 wt %, 20 days): 3.85 ± 0.43
feed uptake ([2]; TCDD 27.5 μg/kg + UDCA 0.125 wt %, 30 days): 3.99 ± 0.34
feed uptake ([2]; TCDD 27.5 μg/kg + UDCA 0.125 wt %, 40 days): 3.72 ± 0.21
feed uptake ([2]; TCDD 27.5 μg/kg + UDCA 0.125 wt %, 50 days): 2.90 ± 0.98
feed uptake ([2]; TCDD 27.5 μg/kg + UDCA 0.125 wt %, 60 days): 2.96 ± 0.29
feed uptake ([2]; TCDD 27.5 μg/kg + UDCA 0.25 wt %, 10 days): 4.07 ± 0.40
feed uptake ([2]; TCDD 27.5 μg/kg + UDCA 0.25 wt %, 20 days): 3.41 ± 0.71
feed uptake ([2]; TCDD 27.5 μg/kg + UDCA 0.25 wt %, 30 days): 3.59 ± 0.38
feed uptake ([2]; TCDD 27.5 μg/kg + UDCA 0.25 wt %, 40 days): 3.32 ± 0.39
feed uptake ([2]; TCDD 27.5 μg/kg + UDCA 0.25 wt %, 50 days): 3.16 ± 0.24
feed uptake ([2]; TCDD 27.5 μg/kg + UDCA 0.25 wt %, 60 days): 3.10 ± 0.77
feed uptake ([2]; TCDD 27.5 μg/kg + UDCA 0.5 wt %, 10 days): 4.31 ± 1.49
feed uptake ([2]; TCDD 27.5 μg/kg + UDCA 0.5 wt %, 20 days): 4.67 ± 1.13
feed uptake ([2]; TCDD 27.5 μg/kg + UDCA 0.5 wt %, 30 days): 3.99 ± 0.36
feed uptake ([2]; TCDD 27.5 μg/kg + UDCA 0.5 wt %, 40 days): 3.49 ± 0.57
feed uptake ([2]; TCDD 27.5 μg/kg + UDCA 0.5 wt %, 50 days): 3.18 ± 0.55
feed uptake ([2]; TCDD 27.5 μg/kg + UDCA 0.5 wt %, 60 days): 3.17 ± 0.49
feed uptake ([2]; TCDD 110.0 μg/kg + UDCA 0.125 wt %, 10 days): 3.77 ± 0.43
feed uptake ([2]; TCDD 110.0 μg/kg + UDCA 0.125 wt %, 20 days): 3.64 ± 1.16
feed uptake ([2]; TCDD 110.0 μg/kg + UDCA 0.125 wt %, 30 days): 2.94 ± 0.64
feed uptake ([2]; TCDD 110.0 μg/kg + UDCA 0.125 wt %, 40 days): 1.99 ± 0.58
feed uptake ([2]; TCDD 110.0 μg/kg + UDCA 0.25 wt %, 10 days): 3.65 ± 0.33
feed uptake ([2]; TCDD 110.0 μg/kg + UDCA 0.25 wt %, 20 days): 3.09 ± 0.44
feed uptake ([2]; TCDD 110.0 μg/kg + UDCA 0.25 wt %, 30 days): 3.23 ± 0.55
feed uptake ([2]; TCDD 110.0 μg/kg + UDCA 0.25 wt %, 40 days): 3.06 ± 1.89
feed uptake ([2]; TCDD 110.0 μg/kg + UDCA 0.5 wt %, 10 days): 3.87 ± 0.57
feed uptake ([2]; TCDD 110.0 μg/kg + UDCA 0.5 wt %, 20 days): 3.77 ± 0.62
feed uptake ([2]; TCDD 110.0 μg/kg + UDCA 0.5 wt %, 30 days): 3.39 ± 0.24
feed uptake ([2]; TCDD 110.0 μg/kg + UDCA 0.5 wt %, 40 days): 2.72 ± 0.72
feed uptake ([2]; TCDD 110.0 μg/kg + UDCA 0.5 wt %, 50 days): 2.19 ± 0.22
feed uptake ([2]; TCDD 110.0 μg/kg + UDCA 0.5 wt %, 60 days): 2.05 ± 0.62
BASO [3]: 0.12 ± 0.07 10^3
EOS [3]: 0.004 ± 0.005 10^3
HCT [3]: 44.61 ± 1.14%
HGB [3]: 14.35 ± 0.37 g/dL
LYM [3]: 5.06 ± 1.70 10^3
MCH [3]: 14.87 ± 0.22 pg
MCHC [3]: 32.18 ± 0.43 g/dL
MCV [3]: 46.18 ± 0.55 fL
